Assay results reported in ChEMBL document CHEMBL2401657, “Discovery of new PPARγ agonists based on arylopeptoids” (Bioorg Med Chem Lett, 2013).
pIC50: −log10 of the molar value. Calls of active or inactive are those of the source. No cut-off for these calls is given here.

What was measured:
[1] = molecular target: Free fatty acid receptor 1 (Homo sapiens) (UniProt O14842); assay: Antagonist activity at FFAR1 (unknown origin) assessed as inhibition of GW9508-induced calcium mobilization at 10 uM preincubated for 20 mins followed by GW9508 induction by fluorescence assay; type: functional
[2] = molecular target: Free fatty acid receptor 1 (Homo sapiens) (UniProt O14842); assay: Agonist activity at FFAR1 (unknown origin) assessed as induction of calcium mobilization at 10 uM by fluorescence assay; type: functional
[3] = Cytotoxicity against mouse embryo fibroblasts; type: cell-based; conditions: fibroblast
[4] = molecular target: T1, Peroxisome proliferator-activated receptor gamma (Homo sapiens) (UniProt P37231); assay: Transactivation of human PPARgamma LBD transfected in mouse embryo fibroblasts at 100 uM after 18 hrs by Gal4-responsive luciferase reporter gene assay relative to vehicle-treated control
T1 sequence (whole entry): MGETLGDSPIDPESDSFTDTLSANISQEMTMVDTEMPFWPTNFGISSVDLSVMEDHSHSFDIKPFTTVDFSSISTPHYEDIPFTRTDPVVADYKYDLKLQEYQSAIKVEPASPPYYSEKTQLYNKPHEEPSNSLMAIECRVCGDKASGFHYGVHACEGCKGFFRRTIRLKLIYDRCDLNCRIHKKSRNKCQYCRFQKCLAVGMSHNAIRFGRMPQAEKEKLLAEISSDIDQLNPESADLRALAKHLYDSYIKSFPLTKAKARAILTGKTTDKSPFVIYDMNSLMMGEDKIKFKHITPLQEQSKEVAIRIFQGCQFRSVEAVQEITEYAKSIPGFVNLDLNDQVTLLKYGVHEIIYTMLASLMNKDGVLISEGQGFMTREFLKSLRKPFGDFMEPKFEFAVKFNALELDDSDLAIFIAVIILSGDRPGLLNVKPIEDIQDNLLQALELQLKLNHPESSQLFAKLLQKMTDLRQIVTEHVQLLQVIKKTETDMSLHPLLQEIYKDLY

[5] = molecular target: T1, Peroxisome proliferator-activated receptor gamma (Homo sapiens); assay: Transactivation of human PPARgamma LBD transfected in mouse embryo fibroblasts at 100 uM after 18 hrs by Gal4-responsive luciferase reporter gene assay relative to rosiglitazone
[6] = molecular target: T2, Retinoic acid receptor RXR-alpha (Homo sapiens) (UniProt P19793); assay: Transactivation of RXRalpha (unknown origin) relative to control
T2 sequence (whole entry): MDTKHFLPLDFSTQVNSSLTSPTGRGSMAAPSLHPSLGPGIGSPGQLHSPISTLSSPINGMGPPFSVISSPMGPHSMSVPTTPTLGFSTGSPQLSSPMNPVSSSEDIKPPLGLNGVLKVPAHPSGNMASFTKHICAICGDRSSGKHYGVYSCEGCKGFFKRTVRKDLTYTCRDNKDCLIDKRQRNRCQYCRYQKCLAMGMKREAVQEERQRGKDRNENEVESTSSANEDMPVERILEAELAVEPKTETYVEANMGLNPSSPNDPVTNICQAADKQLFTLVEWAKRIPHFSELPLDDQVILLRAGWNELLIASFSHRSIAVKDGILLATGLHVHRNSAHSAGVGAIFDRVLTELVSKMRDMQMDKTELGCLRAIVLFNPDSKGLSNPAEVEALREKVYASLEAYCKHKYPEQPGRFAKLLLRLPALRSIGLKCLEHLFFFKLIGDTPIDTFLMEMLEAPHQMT

[7] = molecular target: T3, Peroxisome proliferator-activated receptor alpha (Homo sapiens) (UniProt Q07869); assay: Transactivation of PPARalpha (unknown origin) relative to control
T3 sequence (whole entry): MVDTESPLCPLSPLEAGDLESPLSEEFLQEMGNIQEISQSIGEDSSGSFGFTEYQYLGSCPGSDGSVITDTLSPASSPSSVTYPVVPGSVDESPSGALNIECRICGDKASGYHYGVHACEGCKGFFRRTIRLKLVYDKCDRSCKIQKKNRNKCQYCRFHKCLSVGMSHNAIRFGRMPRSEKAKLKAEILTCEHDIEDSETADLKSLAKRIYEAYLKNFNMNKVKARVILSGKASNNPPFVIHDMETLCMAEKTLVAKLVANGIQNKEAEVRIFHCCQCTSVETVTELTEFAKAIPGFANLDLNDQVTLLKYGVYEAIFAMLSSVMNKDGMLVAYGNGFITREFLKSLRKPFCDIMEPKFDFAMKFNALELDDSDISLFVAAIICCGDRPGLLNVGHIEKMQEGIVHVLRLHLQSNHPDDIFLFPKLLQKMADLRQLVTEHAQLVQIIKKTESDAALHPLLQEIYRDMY

[8] = molecular target: T4, Peroxisome proliferator-activated receptor gamma (Homo sapiens, UniProt P37231); assay: Binding affinity to GST-tagged human PPARgamma LBD by ligand displacement assay
T4 sequence (P37231 whole entry): T1 sequence (whole entry)

[9] = molecular target: T5, Peroxisome proliferator-activated receptor delta (Homo sapiens) (UniProt Q03181); assay: Transactivation of PPARdelta (unknown origin) relative to control
T5 sequence (whole entry): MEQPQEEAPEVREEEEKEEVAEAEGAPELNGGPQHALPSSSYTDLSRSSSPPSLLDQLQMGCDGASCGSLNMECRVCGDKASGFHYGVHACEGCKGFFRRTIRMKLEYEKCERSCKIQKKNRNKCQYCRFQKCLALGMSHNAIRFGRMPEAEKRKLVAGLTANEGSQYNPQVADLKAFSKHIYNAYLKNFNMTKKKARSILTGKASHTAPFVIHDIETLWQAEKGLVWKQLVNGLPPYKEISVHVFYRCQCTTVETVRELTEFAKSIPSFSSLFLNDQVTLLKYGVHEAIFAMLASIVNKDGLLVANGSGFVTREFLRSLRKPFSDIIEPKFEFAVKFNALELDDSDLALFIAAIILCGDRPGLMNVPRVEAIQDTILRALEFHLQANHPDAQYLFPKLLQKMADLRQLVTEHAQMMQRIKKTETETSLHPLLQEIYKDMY

Sequence of Free fatty acid receptor 1 (Homo sapiens) (O14842 whole entry): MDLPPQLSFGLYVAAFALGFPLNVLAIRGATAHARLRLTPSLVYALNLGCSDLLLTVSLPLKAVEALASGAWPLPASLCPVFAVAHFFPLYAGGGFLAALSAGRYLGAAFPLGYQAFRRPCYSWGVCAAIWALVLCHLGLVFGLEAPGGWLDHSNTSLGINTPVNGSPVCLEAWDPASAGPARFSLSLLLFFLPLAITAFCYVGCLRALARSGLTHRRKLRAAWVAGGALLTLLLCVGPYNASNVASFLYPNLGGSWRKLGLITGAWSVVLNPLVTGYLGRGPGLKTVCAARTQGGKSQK

With `CC(C)N(Cc1cccc(C(=O)NCc2ccc(CCC(=O)O)cc2)c1)C(=O)c1ccccc1` the inhibition [1] was “inactive”, the Activity [2] was “inactive” and the Activity [3] was “Non-toxic”. For the same molecule, the fold change (FC) [4] was 7.3 and the Activity [5] was 18.4%.
With `CCN(Cc1ccc(CCC(=O)O)cc1)C(=O)c1cccc(CNC(=O)c2ccccc2)c1` the inhibition [1] was “inactive”, the Activity [2] was “inactive” and the Activity [3] was “Non-toxic”. The fold change (FC) [4] was 8.1 and the Activity [5] was 15.1%.
In the case of `CCN(Cc1ccc(C(=O)N(Cc2ccc(CCC(=O)O)cc2)C(C)C)cc1)C(=O)c1ccccc1`, the inhibition [1] was “inactive”, the Activity [2] was “inactive” and the Activity [3] was “Non-toxic”. For the same molecule, the fold change (FC) [4] was 6.9 and the Activity [5] was 11.6%.
In the case of `CC(C)N(Cc1cccc(C(=O)N(Cc2ccc(CCC(=O)O)cc2)C(C)C)c1)C(=O)c1ccccc1`, the inhibition [1] was “inactive”, the Activity [2] was “inactive” and the Activity [3] was “Non-toxic”. It also gave a fold change (FC) [4] of 5.3 and an Activity [5] of 10.7%.
With `CCN(Cc1ccc(CCC(=O)O)cc1)C(=O)c1ccc(CNC(=O)c2ccccc2)cc1` the inhibition [1] was “inactive”, the Activity [2] was “inactive” and the Activity [3] was “Non-toxic”. The fold change (FC) [4] was 6.2 and the Activity [5] was 11.8%.
In the case of `CCN(Cc1ccc(C(=O)NCc2ccc(CCC(=O)O)cc2)cc1)C(=O)c1ccccc1`, the inhibition [1] was “inactive”, the Activity [2] was “inactive” and the Activity [3] was “Non-toxic”. The fold change (FC) [4] was 6 and the Activity [5] was 13.1%.
With `CC(C)N(Cc1ccc(C(=O)NCc2ccc(CCC(=O)O)cc2)cc1)C(=O)c1ccccc1` the inhibition [1] was “inactive”, the Activity [2] was “inactive” and the Activity [3] was “Non-toxic”. For the same molecule, the fold change (FC) [4] was 5.7 and the Activity [5] was 12.5%.
With `CCN(Cc1cccc(C(=O)NCc2ccc(CCC(=O)O)cc2)c1)C(=O)c1ccccc1` the inhibition [1] was “inactive”, the Activity [2] was “inactive” and the Activity [3] was “Non-toxic”. The fold change (FC) [4] was 9.3 and the Activity [5] was 23.5%.
With `CCN(Cc1ccc(C(=O)N(CC)Cc2ccc(CCC(=O)O)cc2)cc1)C(=O)c1ccccc1` the inhibition [1] was “inactive”, the Activity [2] was “inactive” and the Activity [3] was “Non-toxic”. For the same molecule, the fold change (FC) [4] was 7.3 and the Activity [5] was 13.8%.
With `CC(C)N(Cc1ccc(C(=O)N(Cc2ccc(CCC(=O)O)cc2)C(C)C)cc1)C(=O)c1ccccc1` the inhibition [1] was “inactive”, the Activity [2] was “inactive” and the Activity [3] was “Non-toxic”. It also gave a fold change (FC) [4] of 14.7 and an Activity [5] of 24.7%.
For `CCN(Cc1cccc(C(=O)N(Cc2ccc(CCC(=O)O)cc2)C(C)C)c1)C(=O)c1ccccc1`, the inhibition [1] was “inactive”, the Activity [2] was “inactive” and the Activity [3] was “Non-toxic”. For the same molecule, the fold change (FC) [4] was 5.8 and the Activity [5] was 11.8%.
In the case of `CCN(Cc1ccc(CCC(=O)O)cc1)C(=O)c1ccc(CN(C(=O)c2ccccc2)C(C)C)cc1`, the inhibition [1] was “inactive”, the Activity [2] was “inactive” and the Activity [3] was “Non-toxic”. It also gave a fold change (FC) [4] of 3.6 and an Activity [5] of 6.9%.
In the case of `CC(C)N(Cc1ccc(CCC(=O)O)cc1)C(=O)c1ccc(CNC(=O)c2ccccc2)cc1`, the inhibition [1] was “inactive”, the Activity [2] was “inactive” and the Activity [3] was “Non-toxic”. The fold change (FC) [4] was 12.6 and the Activity [5] was 21.2%.
For `O=C(O)CCc1ccc(CNC(=O)c2cccc(CNC(=O)c3ccccc3)c2)cc1`, the inhibition [1] was “inactive”, the fold change (FC) [6] was under 2 and the Activity [2] was “inactive”. For the same molecule, the Activity [3] was “Non-toxic”, the fold change (FC) [7] was under 2 and the fold change (FC) [4] was 5.6. The pIC50 [8] was 4.20, the Activity [5] was 14.1% and the fold change (FC) [9] was under 2.
With `CC(C)N(Cc1ccc(CCC(=O)O)cc1)C(=O)c1cccc(CNC(=O)c2ccccc2)c1` the inhibition [1] was “inactive”, the fold change (FC) [6] was 5 and the Activity [2] was “inactive”. For the same molecule, the Activity [3] was “Non-toxic”, the fold change (FC) [7] was under 2 and the fold change (FC) [4] was 13.4. It also gave a pIC50 [8] of 4.41, an Activity [5] of 27.2% and a fold change (FC) [9] of under 2.
For `CCN(Cc1cccc(C(=O)N(CC)Cc2ccc(CCC(=O)O)cc2)c1)C(=O)c1ccccc1`, the inhibition [1] was “inactive”, the fold change (FC) [6] was under 2 and the Activity [2] was “inactive”. For the same molecule, the Activity [3] was “Non-toxic”, the fold change (FC) [7] was over 2 and the fold change (FC) [4] was 11.2. For the same molecule, the pIC50 [8] was 4.25, the Activity [5] was 20.9% and the fold change (FC) [9] was under 2.
With `O=C(O)CCc1ccc(CNC(=O)c2ccc(CNC(=O)c3ccccc3)cc2)cc1` the inhibition [1] was “inactive”, the Activity [2] was “inactive” and the Activity [3] was “Non-toxic”. It also gave a fold change (FC) [4] of 2.5 and an Activity [5] of 5.4%.
For `CCN(Cc1ccc(CCC(=O)O)cc1)C(=O)c1cccc(CN(C(=O)c2ccccc2)C(C)C)c1`, the inhibition [1] was “inactive”, the Activity [2] was “inactive” and the Activity [3] was “Non-toxic”. For the same molecule, the fold change (FC) [4] was 6.2 and the Activity [5] was 11.6%.
